Reference: US9708628B2, “Cationic lipid having improved intracellular kinetics” (NOF CORPORATION, priority 2011, dated 2017)

What was measured:
HT1080 cells = assay: Gene expression by MEND (luciferase assay, RLU/mg protein); format: cell-based; conditions: cationic lipid:SOPE:Chol=3:4:3, PEG2000DSG; pDNA 0.4 μg/well, 24 hr
Experimental: Using B-2 (Example 1), B-2-1 (Comparative Example 1), and DODAP (Comparative Example 2) as cationic lipids, MENDs having a composition of cationic lipid:SOPE:Chol=3:4:3 were prepared by the method described in [Experimental Example 1] (2). For the preparation, PEG2000DSG was used as PEG lipid, and MEND solutions corresponding to 0.55 mM of the lipid concentration were prepared. For cationic MEND, lipids having a composition of DOTAP:DOPE:Chol:=3:4:3 were used, and the cationic MEND was prepared according to the method described in [Experimental Example 1] (3).
HT1080 cells were plated on a 24-well plate at 4×10^4 cells/500 μL/well 24 hr before, various MENDs were diluted with DMEM (FBS 10%+) to a pDNA amount of 0.4 μg/500 μL/well and transfected. 24 hr later, the cells were washed with PBS(−) (500 μL), 1× Lysis buffer was added to each well by 75 μL, and the mixture was stood at −80° C. for 30 min or longer. The frozen 24-well plate was thawed on ice, the cells were detached with a cell scraper, and the total amount thereof was transferred into an Eppendorf tube and centrifuged under the conditions of 15000 rpm, 4° C., 5 min. The supernatant (50 μL) was recovered in a different Eppendorf tube, and used for luciferase assay and BCA assay.
20 μL thereof was mixed with a Luciferase assay substrate (50 μL), and the luciferase activity in a given time was measured by a luminometer. The obtained lysate was diluted 5-fold with DDW to achieve 25 μL total volume. Thereto was added BCA Protein Assay Reagent (200 μL), and the mixture was stood at 37° C. for 30 min. Thereafter, the absorbance at 562 nm was measured, and the protein amount of the sample was calculated from the absorbance of a BSA solution having a known concentration. The luciferase activity (RLU) was adjusted by dividing with protein amount (mg), and the luciferase activity per cell protein amount (RLU/mg protein) was calculated.
Using B-2 (Example 1), B-2-2 (Example 2), and B-2-3 (Example 3) as cationic lipids, MENDs having a composition of cationic lipid:SOPE:Chol=3:4:3 were prepared by the method described in [Experimental Example 1] (2). For the preparation, PEG2000DSG was used as PEG lipid, and MEND solutions corresponding to 0.55 mM of the lipid concentration were prepared. The gene expression was evaluated by the method described in [Example 4] (2).
Using compositions of B-2-4 (Example 4):DOPE:Chol=3:3:4, B-2-5 (Example 5):POPE:Chol=3:3:4, B-2 (Example 1):SOPE:Chol=5:3:2 as lipids, MENDs were prepared according to [Experimental Example 1](1) and (2). For the preparation, PEG2000-DMG was used as PEG lipid, and MEND solutions corresponding to 0.55 mM of the lipid concentration were prepared.
The gene expression activity was evaluated by the method described in [Experimental Example 4] (2).

[1] = Particle size and surface potential of pDNA-encapsulating MENDs, dynamic light scattering (Zetasizer Nano); format: physicochemical; conditions: pDNA MEND, cationic lipid:SOPE:Chol = 3:4:3
Experimental: A solution of pDNA encoding luciferase gene and protamine (CALBIOCHEM) solution were diluted with 10 mM HEPES buffer to 0.3 mg/mL and […], respectively. While stirring 0.3 mg/mL pDNA (125 μL), 0.24 mg/mL protamine (125 μL) was added dropwise in small portions to prepared an electrostatic complex of protamine and pDNA (N/P ratio=1.2) as a core of the vector. In the method described in the following (2), 10 mM HEPES buffer (pH 5.3) was used and, in the method described in (3), 10 mM HEPES buffer (pH 7.4) was used.
A lipid solution in ethanol was prepared by mixing 5 mM cationic lipid, 5 mM phospholipid and 5 mM cholesterol (Chol) at desired ratios to achieve 165 nmol total lipid in an Eppendorf tube, further adding various PEG lipids (1 mM solution in ethanol) in an amount corresponding to 3 mol % of the total lipid, and adding ethanol to achieve a total volume of 100 μL. While stirring the lipid solution in a vortex mixer, 100 μL of the nucleic acid electrostatic complex (10 mM HEPES; pH 5.3) prepared in [Experimental Example 1] (1) was quickly added, and thereafter 10 mM HEPES buffer (1.8 mL, adjusted to pH 5.3) was added to dilute the mixture to an ethanol concentration of 5%. The mixture was concentrated to about 50 μL by ultrafiltration using Amicon Ultra 4 (Millipore) under centrifugation conditions (room temperature, 2267 rpm, 20 min). Thereafter, it was diluted to 4 mL with 100 mM HEPES buffer (adjusted to pH 7.4), and again concentrated by centrifugation (2267 rpm, 20 min) under room temperature conditions. Finally, it was diluted with 10 mM HEPES buffer (pH 7.4) to a desired lipid concentration.
A solution of each lipid in chloroform (5 mM DOTAP 24.75 μL, 5 mM DOPE 33 μL, 5 mM Chol 24.75 μL) were mixed in a glass test tube at DOTAP:DOPE:Chol=3:4:3 to achieve 412.5 nmol total lipid. Ethanol was added to a total amount of 250 μL, and the mixture was dried under reduced pressure in a desiccator. The solvent was evaporated to give a lipid thin film. To the lipid thin film was added 250 μL of the gene electrostatic complex (in 10 mM HEPES; pH 7.4) prepared in [Experimental Example 1] (1) to a total lipid concentration of 1.65 mM, and the mixture was stood at room temperature for 10 min to allow for hydration, and sonicated by a sonicator (AIWA MEDICAL […] CO., LTD.) for 1 min.
The particle size and the surface potential were measured by the dynamic light scattering method (Zetasizer Nano; Malve Rn). The particle size and the surface potential of the various MENDs prepared by the preparation method of [Experimental Example 1] are shown in Table 3. The charge of B-2 and DODAP at physiological pH was in a preferable mode of −10 to +10 mV, whereas that of B-2-1 was +12.3, which is not less than +10 mV.
(1) MEND having a composition of B-2-4 (Example 4):DOPE:Chol=3:3:4 or B-2-5 (Example 5):POPE:Chol=3:4:3 was prepared according to the method described in [Experimental Example 1] (1) and (2).
The particle size and the surface potential were measured by the dynamic light scattering method (Zetasizer Nano; Malvern). The particle size and the surface potential of the various MENDs prepared by the preparation method of [Experimental Example 1] are shown in Table 4.

[2] = Particle size and surface potential of siRNA MENDs prepared by t-BuOH injecting method; format: physicochemical; conditions: siRNA MEND; for PDI / size (nm) / zeta (mV): cationic lipid/cholesterol=70/30, DMG-PEG2000 3%
Experimental: (§1) A lipid solution in t-BuOH with a composition of cationic lipid/cholesterol=70/30, DMG-PEG2000 3% and a total lipid amount of 3000 nmol/400 μL (7.5 mM) was prepared in a 1.7 mL tube. In a separate 1.7 mL tube, an siRNA solution was prepared by mixing an siRNA aqueous solution containing siRNA (160 μg) and 20 mM malate buffer (pH 4.00, 30 mM NaCl) to total 50 μL. With vigorous stirring of the lipid solution, the siRNA solution was gradually added dropwise, and the mixed solution was taken in a 1 mL syringe. Then, 20 mM malate buffer (pH 4.00, 30 mM NaCl, 2 mL) was added into a 5 mL tube, and the mixed solution was gradually injected with vigorous stirring. Thereafter, the mixture was further diluted with PBS (7 mL) and centrifuged at 1000 g, 30° C. for 10 min in Amicon Ultra-15-100K to a volume of less than 1.5 mL. PBS (15 mL) was added, and the solution was centrifuged again to about 500-1000 μL. Finally, the MEND solution was adjusted by diluting with PBS to the object lipid concentration.
The particle size and surface potential of various MENDs were measured according to the method described in [Experimental Example 2] and the results are shown in Table 6.

Factor VII (FVII) = assay: Knockdown effect of siRNA-encapsulated MEND prepared by t-BuOH injecting method; format: in vivo, ICR mice; conditions: varying doses of siRNA, tail vein
Experimental: A MEND solution prepared by the method shown in [Experimental Example 28] was administered to 4-week-old male ICR mice at 3 mg siRNA/kg from the tail vein, and blood was collected 24 hr later. This blood sample was centrifuged at 1000 g, 10 min, 4° C., and the supernatant was recovered to obtain plasma. The amount of Factor VII (FVII) in the plasma was quantified by BIOPHEN FVII CHROMOGENIC ASSAY (HYPHEN BioMed).
as §1
MENDs prepared by the method shown in Experimental Example 32 were administered by a method similar to the method shown in Experimental Example 30 with varying doses of siRNA, and the knockdown effect was evaluated. The results are shown in FIG. 35, FIG. 36, and FIG. 37.

| SMILES | gene expression activity (luciferase activity per cell protein) (HT1080 cells) | PDI [1] | size (nm) [1] [nm] | zeta (mV) [1] [mV] | PDI [2] | size (nm) [2] [nm] | zeta (mV) [2] [mV] | FVII expression level (knockdown effect) (Factor VII (FVII)) | charge at physiological pH [2] |
| --- | --- | --- | --- | --- | --- | --- | --- | --- | --- |
| CCCCCCCCCCCCCCCCCC(=O)OCCCN(C)CCSSCCN(C)CCCOC(=O)CCCCCCCCCCCCCCCCC [Example B-2-2] | inferior to that of B-2, but exceeds that of conventional pH-responsive lipid cationic lipid, DODAP | 0.132 | 134.6 | −5.77 | – | – | – | – | – |
| CCCCC/C=C\C/C=C\CCCCCCCC(=O)OCCCN(C)CCSSCCN(C)CCCOC(=O)CCCCCCC/C=C\C/C=C\CCCCC [Example B-2-3] | inferior to that of B-2, but exceeds that of conventional pH-responsive lipid cationic lipid, DODAP | 0.091 | 148.7 | −7.97 | – | – | – | – | – |
| Cc1c(C)c2c(c(C)c1OC(=O)CCCC(=O)OCCCN(C)CCSSCCN(C)CCCOC(=O)CCCC(=O)Oc1c(C)c(C)c3c(c1C)CCC(C)(CCCC(C)CCCC(C)CCCC(C)C)O3)CCC(C)(CCCC(C)CCCC(C)CCCC(C)C)O2 (stereo not drawn) [TG-C3M] | – | – | – | – | 0.13 | 120 | −13.0 | – | – |
| CCN(CCCCOC(=O)CCC(=O)Oc1c(C)c(C)c2c(c1C)CCC(C)(CCCC(C)CCCC(C)CCCC(C)C)O2)CCSSCCN(CC)CCCCOC(=O)CCC(=O)Oc1c(C)c(C)c2c(c1C)CCC(C)(CCCC(C)CCCC(C)CCCC(C)C)O2 (stereo not drawn) [TS-C4E] | – | – | – | – | 0.07 | 118 | −9.8 | – | – |
| Cc1c(C)c2c(c(C)c1OC(=O)CCC(=O)OCCCCCN(CCSSCCN(CCCCCOC(=O)CCC(=O)Oc1c(C)c(C)c3c(c1C)CCC(C)(CCCC(C)CCCC(C)CCCC(C)C)O3)C(C)C)C(C)C)CCC(C)(CCCC(C)CCCC(C)CCCC(C)C)O2 (stereo not drawn) [TS-C5P] | – | – | – | – | 0.13 | 125 | −6.4 | – | – |
| Cc1c(C)c2c(c(C)c1OC(=O)CCC(=O)OCC1CCCCN1CCSSCCN1CCCCC1COC(=O)CCC(=O)Oc1c(C)c(C)c3c(c1C)CCC(C)(CCCC(C)CCCC(C)CCCC(C)C)O3)CCC(C)(CCCC(C)CCCC(C)CCCC(C)C)O2 (stereo not drawn) [TS-P2C1] | – | – | – | – | 0.12 | 114 | −12.2 | – | – |
| Cc1c(C)c2c(c(C)c1OC(=O)CCC(=O)OCC1CCCN(CCSSCCN3CCCC(COC(=O)CCC(=O)Oc4c(C)c(C)c5c(c4C)CCC(C)(CCCC(C)CCCC(C)CCCC(C)C)O5)C3)C1)CCC(C)(CCCC(C)CCCC(C)CCCC(C)C)O2 (stereo not drawn) [TS-P3C1] | – | – | – | – | 0.13 | 118 | −9.8 | – | – |
| Cc1c(C)c2c(c(C)c1OC(=O)CCC(=O)OCC1CCN(CCSSCCN3CCC(COC(=O)CCC(=O)Oc4c(C)c(C)c5c(c4C)CCC(C)(CCCC(C)CCCC(C)CCCC(C)C)O5)CC3)CC1)CCC(C)(CCCC(C)CCCC(C)CCCC(C)C)O2 (stereo not drawn) [TS-P4C1] | – | – | – | – | 0.13 | 113 | −11.9 | highest knockdown effect | – |
| Cc1c(C)c2c(c(C)c1OC(=O)CCC(=O)OCCC1CCN(CCSSCCN3CCC(CCOC(=O)CCC(=O)Oc4c(C)c(C)c5c(c4C)CCC(C)(CCCC(C)CCCC(C)CCCC(C)C)O5)CC3)CC1)CCC(C)(CCCC(C)CCCC(C)CCCC(C)C)O2 (stereo not drawn) [TS-P4C2] | – | – | – | – | 0.07 | 125 | −8.5 | highest knockdown effect | – |
| Cc1c(C)c2c(c(C)c1OC(=O)CCC(=O)OCCCC1CCN(CCSSCCN3CCC(CCCOC(=O)CCC(=O)Oc4c(C)c(C)c5c(c4C)CCC(C)(CCCC(C)CCCC(C)CCCC(C)C)O5)CC3)CC1)CCC(C)(CCCC(C)CCCC(C)CCCC(C)C)O2 (stereo not drawn) [TS-P4C3] | – | – | – | – | 0.09 | 123 | −6.6 | highest knockdown effect | – |
| Cc1c(C)c2c(c(C)c1OC(=O)CCC(=O)NCCCN(C)CCSSCCN(C)CCCNC(=O)CCC(=O)Oc1c(C)c(C)c3c(c1C)CCC(C)(CCCC(C)CCCC(C)CCCC(C)C)O3)CCC(C)(CCCC(C)CCCC(C)CCCC(C)C)O2 (stereo not drawn) [TSamide-C3M] | – | – | – | – | 0.21 | 93 | 7.0 | – | weak positive charge |
